Activity calls are given as the source filed them.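 How the source made its calls: active means compounds giving half or more protection of infected cells from virus-caused growth loss, again on retest; inactive means the rest.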
Tested on: CEM cells HIV-1 protection, formazan growth assay
Assay: NCI AIDS Antiviral Assay
Conditions: for IC50: measured here: growth of uninfected CEM cells
Summary of the method: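 Protection of CEM cells against HIV-1 was scored from cell growth (soluble formazan) across five concentrations, with parallel uninfected cells. Lack of protection may reflect toxicity.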

Structure (SMILES)	outcome	EC50 [µM]	IC50 [µM]
O=C(Cc1nc2ccccc2s1)C(=O)Nc1cccc(C(F)(F)F)c1	inactive		
CC1(C)C(=NO)C(C)(C)C1=NO	inactive		
Cc1cccc(NC(=O)C(=O)C(C(=O)c2ccc3ccccc3c2)C2OC(=O)c3ccccc32)c1C (stereo not drawn)		> 28.2	26.3
Cn1c(=O)[nH]c(N2CCCC2)c(C#N)c1=S		> 200	> 200
COc1ccc2c(=O)c(-c3cc4c(cc3OC)OCO4)coc2c1		> 200	> 200
N.N.N.N.N.N.[Br-].[Co+3]	inactive		
OC1CC2CCC(C1)S2 (stereo not drawn)		> 200	> 200
N#CC(C#N)=C1CCC2C(=C(C#N)C#N)CCC12 (stereo not drawn)	inactive		
COc1cccc2cc(C(=O)Nc3ccccc3)c(=N)oc12		> 200	> 200
O=C(CC(C(=O)c1cccs1)c1ccsc1)c1ccco1 (stereo not drawn)		> 200	32.4
COc1c(Br)cc(C(=O)c2cc(Br)c(OC)c(C(=O)O)c2)cc1C(=O)O		> 1480	> 1480
Cc1cc(=O)oc2c3c(cc(OC(C)C)c12)O[C@H](C)[C@@H](C)C3=O		> 200	40.7
Cc1ccc(C)c(N2C(=O)C(=O)c3c(C)ccc(C)c32)c1		> 200	33.1
CC1=CC(=O)C(C)(C2=NC(C)(C)CO2)c2ccccc21 (stereo not drawn)		51.3	575
C=C1CCCCCCCCC/C=C/1SCCCSC		> 200	> 200
CC1=Nc2c([nH]c(=S)[nH]c2=O)NC(c2c(Cl)cccc2Cl)C1 (stereo not drawn)		> 7.76	> 7.76
COc1cc2oc(=O)ccc2cc1CC=C(C)C		> 40.7	> 40.7
CON(C)c1nc2ccccc2o1		> 200	107
COc1nc(NC2OCC(OC(C)=O)C(OC(C)=O)C2OC(C)=O)c(-c2csc(N)n2)c(=O)n1C (stereo not drawn)	inactive		
CN(CCN(C)C(=S)NN)C(=S)NN		> 200	132
Cc1cn2cc(-c3cccs3)nc2s1		> 200	87.1
Nc1ccccc1SSc1ccccc1C(=O)O		35.5	41.7
C(=N\N=C\c1ccccn1)/c1ccccn1		> 200	61.7

Structure (SMILES)	outcome	EC50 [µM]	IC50 [µM]
CCNC(=S)N/N=C(/c1ccccc1)c1ccccn1		> 200	1
Cc1ccccc1NC(=O)C(=O)c1c(O)c2ccc(O)cc2oc1=O		> 741	331
O=C(O)c1cc(/C=C/c2cc(O)ccc2O)ccc1O		> 182	15.5
CCNC(C)(C)C(SSSC(c1ccc(Cl)cc1)C(C)(C)NCC)c1ccc(Cl)cc1 (stereo not drawn)		> 200	9.12
COC1=CC=C2CC(=C1)CCC1C2CCC2(C)C(=O)CCC12 (stereo not drawn)	inactive		
CN(C)CCNC(=O)c1ccc(NC(=O)c2nc([N+](=O)[O-])cn2C)cc1		> 200	182
COC(=O)NC(Cc1ccccc1)NC(=O)OC(C)(C)C (stereo not drawn)		> 200	> 200
CC(=O)NC1C(OCc2ccccc2)OC(CO)C(O)C1OCC(=O)NC(C)C(=O)NC(CCC(=O)NCCCCNc1ccc([N+](=O)[O-])c2[nH]c3ccccc3c(=O)c12)C(N)=O (stereo not drawn)		81.3	> 100
CCC(=O)CCCC=C(c1cc(Cl)c(OC)c(C(=O)CC)c1)c1cc(Cl)c(OC)c(C(=O)CC)c1		> 200	6.31
CCCC(=O)Nc1c(I)cc(I)c(CC(CC)C(=O)O)c1I (stereo not drawn)		> 200	> 200
O=C(Nc1c(Cl)cc([N+](=O)[O-])cc1Cl)C(=O)C(C(=O)c1ccncc1)C1OC(=O)c2ccccc21 (stereo not drawn)	inactive		
c1ccc(NC[Si]23OCCN(CCO2)CCO3)cc1	inactive		
CC1CN=C(Nc2cccc(F)c2)S1 (stereo not drawn)		0.191	> 200
C=C1C(OC(=O)C(O)C(c2ccccc2)N(C)C)C[C@H](OC(C)=O)[C@]2(C)C1C[C@@H]1CC(OC(C)=O)C(C)=C([C@@H](OC(C)=O)C2OC(C)=O)C1(C)C (stereo partly drawn)	inactive		
Cc1nc2sc3c(c2c(=O)o1)CCCC3		> 200	33.1
Cc1ccc(C=NC23CC4CC(CC(C4)C2)C3)cc1		> 257	> 257
ClC(Cl)=CC(Cl)(Cl)C(Cl)(Cl)C(Cl)(Cl)Cl		> 200	5.5
O=C(CC1NCCS1)OCc1ccc(Br)cc1 (stereo not drawn)		19.1	81.3
O=C(NC(=O)c1c(F)cccc1F)Nc1ncc(Br)cc1Br		> 200	> 200
COc1ccc(C2CC(c3c(O)ccc4ccccc34)=NN2c2ccc([N+](=O)[O-])cc2[N+](=O)[O-])cc1OC (stereo not drawn)		> 200	15.8
COC(=O)C(=O)/C=C(\O)c1ccc(Cl)cc1		> 200	> 200
CC(=O)Oc1cc2c(n(C)c1=O)CCC2		> 200	155
O=c1c2c(nc3n1CCC3)sc1c(O)c(Br)ccc12		> 200	11

Structure (SMILES)	outcome	EC50 [µM]	IC50 [µM]
CC1C(=O)CC2OC3CC(C)(Cl)C(Br)CC31C2(C)C (stereo not drawn)	inactive		
C=CCNC(=S)/N=C\C(C(=O)OCC)=C(/O)C(=O)OCC		> 200	> 200
Cc1cn(C2CC(N(O)Cc3ccccc3)C(CO)O2)c(=O)[nH]c1=O (stereo not drawn)		> 200	> 200
CC(=O)OCC1OC(c2c(OC(C)=O)cc(C)c3c(=O)cc(/C(C(C)=O)=C(\C)O)oc23)C(OC(C)=O)C(OC(C)=O)C1OC(C)=O (stereo not drawn)		> 200	> 200
Clc1ccc(CSc2nnc3c(n2)[nH]c2ccccc23)cc1		> 200	42.7
Clc1cccc(Cl)c1C=NC12CC3CC(CC(C3)C1)C2		> 200	> 200
CCOC(=O)CC(O)(c1ccccc1)c1ccccc1		> 10	> 10
O=C(O)CCCCCCC[n+]1ccccc1		126	> 200
COC(=O)[C@H](Cc1c[nH]c2ccccc12)NP(=O)(OCCC#N)OCC1OC(n2cc(C)c(=O)[nH]c2=O)CC1N=[N+]=[N-] (stereo partly drawn)		55	186
COc1ccc(/C=C/C(=O)c2nc3ccccc3[nH]2)cc1		> 200	3.98
CC1(C)C[C@H]2[C@H](O)C(CO)=C3CC(O)C3(C)[C@H]2C1 (stereo partly drawn)		> 141	66.1
O=C(CCN1CCCC1)CC(c1ccccc1)c1c(O)c2ccccc2oc1=O (stereo not drawn)		> 91.2	> 91.2
CCc1cc2c(oc3cc(C)ccc32)c(=O)[nH]1		> 100	> 100
CC1(C)CN(C(=O)OCc2ccccc2)[C@@H]2N1C(=O)[C@@]2(C)OCCCO[C@@]1(C)C(=O)N2[C@@H]1N(C(=O)OCc1ccccc1)CC2(C)C		> 200	26.9
CN1C(=O)/C(=c2\sc3nc4ccccc4n3c2=O)c2ccccc21	inactive		
COC(=O)N1C2C(C[C@@]1(C)C(=O)OC)c1ccccc1N2S(=O)(=O)c1ccccc1 (stereo partly drawn)		> 200	> 200
O=[N+]([O-])c1cccc(C2=NOC3C4CCC(C4)C23)c1 (stereo not drawn)		0.135	66.1
CC1(c2cccc3ccc(F)cc23)OC(=O)c2ccccc21 (stereo not drawn)		> 41.7	7.94
Cc1ccc(S(=O)(=O)n2c3c(c4ccccc42)CCN2C[C@H]([C@H](C)Br)CC[C@@H]32)cc1		> 200	42.7
O=c1c2ccccc2c(=O)n2n1-c1cccc(c1)CSSCc1cccc-2c1	inactive		
O=C1ON=C2C3CC4CC12CC1(C3)C(=O)ON=C41		> 200	> 200
O=c1[nH]nc(Cc2ccccc2)n1-n1cnnc1		> 200	> 200
C/C=C/C=Nc1c(C#N)c2n(c1C(=O)Nc1ccc(Cl)cc1)CCC2		> 50.1	23.4

Structure (SMILES)	outcome	EC50 [µM]	IC50 [µM]
CCOC(=O)/C(C(=O)c1ccc[nH]1)=C1/CCCN1C		> 200	129
Cn1c2ccccc2c(=O)c2[nH]c3ccccc3c21		> 200	36.3
CN(C)N=Nc1cn[nH]c1C(N)=O		> 138	6.76
Cc1ccc(S(=O)(=O)N2CCSCCSCCSCCSCC2)cc1		> 12	> 12
Cc1[nH]c(=O)[nH]c1C(=O)c1ccc(-n2ccnc2)cc1		> 14.1	> 14.1
O=C(Nc1nn[nH]n1)c1nc(-c2ccccc2)cc(=O)[nH]1		> 200	> 200
CC(=O)OCC1OC(n2c3c(c(-c4ccc(Cl)cc4)c(C#N)c2=S)C(=O)CC(C)(C)C3)C(OC(C)=O)C(OC(C)=O)C1OC(C)=O (stereo not drawn)		> 200	6.46
COC1OC2COc3ccccc3OC2C(NC(N)=S)C1OC (stereo not drawn)		> 132	41.7
O=C(O)Cc1cccc(=O)c(O)c1C(=O)O		> 200	129
C=C1C(=O)O[C@H]2[C@H]1CC(=O)/C(C)=C/CC[C@@]1(C)O[C@@H]21		> 2	0.794
COc1ccc(S(=O)c2ccc(OC)cc2)cc1		> 955	490
C#CC1OC(C)(C)OC1C1OC(C)(C)OCC1O (stereo not drawn)	inactive		
NC(CCc1nc(-c2cccc([N+](=O)[O-])c2)cs1)C(=O)O (stereo not drawn)	inactive		
Cc1cc(S(=O)(=O)Nc2nc(N)nc(N3CCOCC3)n2)c(SCC(=O)O)cc1Cl		> 200	> 200
CC(=O)N1CCCCCC1=O		> 1620	> 1620
CCOC(=O)C1=CNN=CC12C(=O)C(C(=O)OCC)CC2C(=O)OCC (stereo not drawn)		> 245	> 245
CC(=O)OCC(OC(C)=O)C(OC(C)=O)C(/C=N\Nc1nc2ccccc2c(=O)[nH]1)=N\Nc1nc2ccccc2c(=O)[nH]1 (stereo not drawn)		> 200	> 200
NC(=O)c1csc(C2(O)COC(CO)C2O)n1 (stereo not drawn)		> 200	> 200
Cc1cc(C)nc(NS(=O)(=O)c2ccc(NC(=O)c3ccc4nc5ccccc5c(Nc5ccc(S(=O)(=O)N=C(N)N)cc5)c4c3)cc2)n1		72.4	141
S=c1[nH][nH]c(=S)s1		288	501
COCC#C[C@@]1(O)CCCCC1CC(OC)OC (stereo partly drawn)		> 200	112
O=c1[nH]c2ccc(C(F)(F)F)cc2nc1-c1ccccc1		> 200	> 200

From PubChem BioAssay AID179 (DTP/NCI, 2004)
